Assay results published in patent publication US20170217914A1, “Novel Triarylethylene Compounds and Methods Using Same” (The Penn State Research Foundation, priority 2014, published 2017).
Where two headings read alike, the source gives them in different places. One block for each compound: values may come before it.

Columns and labels:
[1] = tested on: MCF-7 (ER-positive) human breast cancer cell line; assay: MTT cell viability assay, MCF-7 cells; conditions: for IC50: Homo sapiens; for anticancer activity in initial screening: 0.5-25 μM, 48 h (FIG. 3); for cytotoxic activity: 72 h, versus Ospemifene and Tamoxifen
Protocol: (§2) An MTT solution was added to each well and incubated for 3 h at 37° C. After 3 h, DMSO was added and the optical density was measured at 570 nm using a 96-well multiscanner (Dynex Technologies, MRX Revelation; Chantilly, Va., USA). Backgrounds were subtracted at 630 nm. IC50 values were calculated by non-linear regression analysis using Prism software.
(§3) The effects of novel triarylethylene derivatives on the cell viability were determined by the MTT uptake method using previously described methods (Kaur et al., 2014, Eur. J. Med. Chem. 86:211-218). Briefly, 3000 cells were incubated with various concentrations of compounds in triplicate in a 96-well plate for 72 h at 37° C. An MTT solution was added to each well and incubated for 3 h at 37° C. After 3 h, DMSO was added and the optical density was measured at 570 nm using a 96-well multiscanner (Dynex Technologies, MRX Revelation; Chantilly, Va., USA). Backgrounds were subtracted at 630 nm. IC50 values were calculated by non-linear regression analysis using Prism software.

[2] = tested on: MDA-MB-231 (ER-negative) human breast cancer cell line; assay: MTT cell viability assay, MDA-MB-231 cells; conditions: for IC50: Homo sapiens; for cytotoxic activity: 72 h, versus Ospemifene and Tamoxifen; for anticancer activity in initial screening: 0.5-25 μM, 48 h (FIG. 3)
Protocol: as §2, §3

[3] = tested on: normal mouse embryonic fibroblast (MEF) cells; assay: MTT cell viability assay, normal MEF cells; conditions: 48 h
Protocol: as §2

MMP-9 = assay: Western blot, MMP-9 expression in breast cancer cells; assay type: cell-based, human; conditions: MDA-MB-231 and MCF-7 cells, 24 h
Protocol: (§1) To determine the effect of novel triarylethylene derivatives on proteins involved in metastasis, and adhesion, whole-cell extracts were prepared by subjecting cells to lysis in RIPA buffer supplemented with protease and phosphatase inhibitor cocktails using previously described methods (Pandey et al., 2014, Exp. Hematol. 42:883-896). Lysates were spun at 15,000 rpm for 10 minutes to remove insoluble material. Supernatant were collected and kept at −80° C. Lysates were resolved by SDS-PAGE. After electrophoresis, the proteins were electro-transferred to PVDF membranes, blotted with the relevant antibodies, and detected by enhanced chemo-luminescence reagent.

c-Myc = assay: Western blot, c-Myc expression in breast cancer cells; assay type: cell-based, human; conditions: MDA-MB-231 and MCF-7 cells, 24 h
Protocol: as §1

caveolin = assay: Western blot, caveolin expression in breast cancer cells; assay type: cell-based, human; conditions: MDA-MB-231 and MCF-7 cells, 24 h
Protocol: as §1

[4] = MCF7, 72 h, read-out: MCF-7 IC50
[5] = MDA-MB-231, 72 h, read-out: MDA-MB-231 IC50
[6] = MCF7, 48 h, read-out: MCF-7 (ER positive) IC50
[7] = MCF7, 96 h, read-out: MCF-7 (ER positive) IC50
[8] = MDA-MB-231, 48 h, read-out: MDA-MB-231 (ER− negative) IC50
[9] = MDA-MB-231, 96 h, read-out: MDA-MB-231 (ER− negative) IC50

IC50 [1, 4]: > 50 µM
IC50 [2, 5]: > 50 µM
melting point: 197 to 198 °C
Compound: COc1ccc(/C(=C(/CCNC(=O)N2CCCCC2)c2ccccc2)c2ccccc2)cc1 [Compound 20, (Z)—N-(4-(4-Methoxyphenyl)-3,4-diphenylbut-3-enyl)piperidine-1-carboxamide]

IC50 [1, 4]: > 50 µM
IC50 [2, 5]: > 50 µM
Compound: CCOC(=O)C(=O)NCC/C(=C(\c1ccccc1)c1ccc(OC)cc1)c1ccccc1 [Compound 15, (Z)-Ethyl-2-(4-(4-methoxyphenyl)-3,4-diphenylbut-3-enylamino)-2-oxoacetate]

IC50 [1, 4]: > 50 µM
IC50 [2, 5]: 42.8 ± 12.2 µM
melting point: 139 to 141 °C
Compound: COc1ccc(/C(=C(/CCNC(=O)N2CCOCC2)c2ccccc2)c2ccccc2)cc1 [Compound 18, (Z)—N-(4-(4-Methoxyphenyl)-3,4-diphenylbut-3-enyl)morpholine-4-carboxamide]

IC50 [1, 4]: 43.4 ± 7.5 µM
IC50 [2, 5]: 20 ± 9.8 µM
melting point: 118.4 to 119.3 °C
Compound: COc1ccc(/C(=C(/CCNC(=O)C(=O)N2CCOCC2)c2ccccc2)c2ccccc2)cc1 [Compound 25, (Z)—N-(4-(4-Methoxyphenyl)-3,4-diphenylbut-3-enyl)-2-morpholino-2-oxoacetamide]
cytotoxic activity ([2]; MTT): good activity

IC50 [1, 4]: > 50 µM
IC50 [2, 5]: > 50 µM
melting point: 194.2 to 195.4 °C
Compound: COc1ccc(/C(=C(/CCNC(=O)N2CCCC2)c2ccccc2)c2ccccc2)cc1 [Compound 21, (Z)—N-(4-(4-Methoxyphenyl)-3,4-diphenylbut-3-enyl)pyrrolidine-1-carboxamide]

Compound: CS(=O)(=O)OCCOc1ccc(/C(=C(/CCCl)c2ccccc2)c2ccccc2)cc1 [Compound 2, (Z)-2-{4-(4-chloro-1,2-diphenylbut-1-enyl}phenoxy) ethyl methanesulfonate]
anticancer activity in initial screening [1]: inactive
anticancer activity in initial screening [2]: inactive
melting point: 84 to 86 °C

Compound: OCCOc1ccc(/C(=C(/CCCl)c2ccccc2)c2ccccc2)cc1 [Ospemifene, (Z)-2-{4-(4-chloro-1,2-diphenylbut-1-enyl)phenoxy}ethanol, reference compound]
toxicity to normal MEF cells [3]: non-toxic
IC50 [1, 6]: > 100 µM
IC50 [1, 7]: 55 µM
cell death ([1]; initial screening, 25 μM): ~40%
IC50 [2, 8]: > 100 µM
IC50 [2, 9]: > 100 µM

melting point: 129 to 131 °C
Compound: COc1ccc(/C(=C(/CCN)c2ccccc2)c2ccccc2)cc1 [Compound 13, (Z)-4-(4-Methoxyphenyl)-3,4-diphenylbut-3-en-1-amine]
expression of MMP-9 (MMP-9): inhibited the expression
expression of c-Myc (c-Myc): inhibited the expression
effectiveness versus Ospemifene and Tamoxifen ([1]; MTT, 0.5-100 μM, 48 h (FIG. 28B)): more effective
cytotoxic activity ([1]; MTT): remarkable activity
effectiveness versus Ospemifene and Tamoxifen ([2]; MTT, 0.5-100 μM, 48 h (FIG. 28A)): more effective
cytotoxic activity ([2]; MTT): remarkable activity
expression of caveolin (caveolin): inhibited the expression

Compound: [N-]=[N+]=NCCOc1ccc(/C(=C(/CCN=[N+]=[N-])c2ccccc2)c2ccccc2)cc1 [Compound 5, (Z)-[4-azido-1-{4-(2-azidoethoxy)phenyl}but-1-ene-1,2-diyl]dibenzene]
anticancer activity in initial screening [1]: ineffective
anticancer activity in initial screening [2]: ineffective

Compound: (Z)-Ethyl-2-(4-(4-methoxyphenyl)-3,4-diphenylbut-3-enylamino)-2-oxoacetate [Compound 15]
expression of MMP-9 (MMP-9): modulated the expression
cytotoxic activity ([1]; MTT): much more effective than the standards
cytotoxic activity ([2]; MTT): much more effective than the standards

IC50 [1, 4]: > 50 µM
IC50 [2, 5]: 48.6 ± 14.5 µM
melting point: 151 to 152 °C
Compound: COc1ccc(/C(=C(/CCNC(=O)C(=O)N2CCCC2)c2ccccc2)c2ccccc2)cc1 [Compound 24, (Z)—N-(4-(4-Methoxyphenyl)-3,4-diphenylbut-3-enyl)-2-oxo-2-(pyrrolidin-1-yl)acetamide]

IC50 [1, 4]: > 50 µM
IC50 [2, 5]: 11.5 ± 3.8 µM
melting point: 169 to 172 °C
Compound: COc1ccc(/C(=C(/CCNC(=O)C(=O)NCc2ccccc2)c2ccccc2)c2ccccc2)cc1 [Compound 22, (Z)—N1-Benzyl-N2-(4-(4-methoxyphenyl)-3,4-diphenylbut-3-enyl)oxalamide]
expression of MMP-9 (MMP-9): inhibited the expression
expression of c-Myc (c-Myc): inhibited the expression
cytotoxic activity ([2]; MTT): selectively cytotoxic
expression of caveolin (caveolin): did not inhibit the expression

melting point: 87 to 89 °C
Compound: COc1ccc(/C(=C(/CCCl)c2ccccc2)c2ccccc2)cc1 [Compound 11, (Z)-(4-Chloro-1-(4-methoxyphenyl)but-1-ene-1,2-diyl)dibenzene]

IC50 [1, 4]: > 50 µM
IC50 [2, 5]: 40.7 ± 12.2 µM
melting point: 159 to 160 °C
Compound: CCN(CC)C(=O)NCC/C(=C(\c1ccccc1)c1ccc(OC)cc1)c1ccccc1 [Compound 19, (Z)-1,1-Diethyl-3-(4-(4-methoxyphenyl)-3,4-diphenylbut-3-enyl)urea]

melting point: 88 to 90 °C
Compound: [N-]=[N+]=NCCOc1ccc(/C(=C(/CCCl)c2ccccc2)c2ccccc2)cc1 [Compound 3, (Z)-[1-{4-(2-azidoethoxy)phenyl}-4-chlorobut-1-ene-1,2-diyl]dibenzene]
anticancer activity in initial screening [1]: inactive
anticancer activity in initial screening [2]: inactive

Compound: (Z)-Phenyl-4-(4-methoxyphenyl)-3,4-diphenylbut-3-enylcarbamate [Compound 14]
expression of MMP-9 (MMP-9): modulated the expression
cytotoxic activity ([1]; MTT): much more effective than the standards
cytotoxic activity ([2]; MTT): much more effective than the standards

IC50 [1, 4]: > 50 µM
IC50 [2, 5]: > 50 µM
melting point: 125 to 127 °C
Compound: COc1ccc(/C(=C(/CCNC(=O)C(=O)N2CCCCC2)c2ccccc2)c2ccccc2)cc1 [Compound 26, (Z)—N-(4-(4-Methoxyphenyl)-3,4-diphenylbut-3-enyl)-2-oxo-2-(piperidin-1-yl)acetamide]

IC50 [1, 4]: 12.1 ± 4.5 µM
IC50 [2, 5]: 12.2 ± 5.3 µM
melting point: 198 to 199 °C
Compound: COc1ccc(/C(=C(/CCNC(=O)C(=O)NC2CCCCC2)c2ccccc2)c2ccccc2)cc1 [Compound 23, (Z)—N1-Cyclohexyl-N2-(4-(4-methoxyphenyl)-3,4-diphenylbut-3-enyl)oxalamide]
expression of MMP-9 (MMP-9): inhibited the expression
expression of c-Myc (c-Myc): inhibited the expression
cytotoxic activity ([1]; MTT): remarkable activity
cytotoxic activity ([2]; MTT): remarkable activity
expression of caveolin (caveolin): did not inhibit the expression

IC50 [1, 6]: > 100 µM
IC50 [1, 7]: > 100 µM
IC50 [2, 8]: > 100 µM
IC50 [2, 9]: > 100 µM
melting point: 126 to 128 °C
Compound: [N-]=[N+]=NCC/C(=C(\c1ccccc1)c1ccc(OCCO)cc1)c1ccccc1 [Compound 4, (Z)-2-{4-(4-azido-1,2-diphenylbut-1-enyl)phenoxy}ethanol]
anticancer activity in initial screening [1]: activity similar to Ospemifene

melting point: 126 to 128 °C
Compound: COc1ccc(/C(=C(/CCN=[N+]=[N-])c2ccccc2)c2ccccc2)cc1 [Compound 12, (Z)-(4-Azido-1-(4-methoxyphenyl)but-1-ene-1,2-diyl)dibenzene]

IC50 [1, 4]: 37.2 ± 13.7 µM
IC50 [2, 5]: > 50 µM
melting point: 168 to 170 °C
Compound: COc1ccc(/C(=C(/CCNC(=O)NC2CCCCC2)c2ccccc2)c2ccccc2)cc1 [Compound 17, (Z)-1-Cyclohexyl-3-(4-(4-methoxyphenyl)-3,4-diphenylbut-3-enyl) urea]

Compound: O=C(NCC/C(=C(\c1ccccc1)c1ccc(OCCO)cc1)c1ccccc1)Oc1ccccc1 [Compound 8, (Z)-Phenyl 4-{4-(2-hydroxyethoxy)phenyl}-3,4-diphenylbut-3-enylcarbamate]
anticancer activity in initial screening [1]: more potent than Ospemifene
IC50 [1, 6]: 76 µM
IC50 [1, 7]: 50 µM
anticancer activity in initial screening [2]: more potent than Ospemifene
IC50 [2, 8]: > 100 µM
IC50 [2, 9]: 62.3 µM
melting point: 121 to 123 °C

IC50 [1, 4]: > 50 µM
IC50 [2, 5]: > 50 µM
melting point: 158 to 160 °C
Compound: COc1ccc(/C(=C(/CCNC(=O)NCc2ccccc2)c2ccccc2)c2ccccc2)cc1 [Compound 16, (Z)-1-Benzyl-3-(4-(4-methoxyphenyl)-3,4-diphenylbut-3-enyl) urea]
